Measured values: patent US20260224536A1, “ARYL HETEROCYCLIC KV1.3 INHIBITOR, PREPARATION METHOD THEREFOR, AND USE THEREOF” (SHANGHAI SHENSHI WISE TECHNOLOGY CO., LTD., priority 2022, published 2026)
pIC50: −log10 of the molar value.

Target: Kv1.3 potassium channel (Homo sapiens, UniProt P22001)
Assay: Whole-cell patch-clamp assay for inhibitory activity against Kv1.3 (peak current)
Type: cell-based
Conditions: HEK293 cells stably expressing Kv1.3, patch-clamp
From the text: The voltage stimulation protocol for recording whole-cell Kv1.X potassium currents via patch-clamp was as follows. After formation of a whole-cell seal, the cell membrane voltage was clamped at −80 mV, and then stepped to +40 mV for 500 ms. […] The test data were acquired by EPC-10 amplifier (HEKA) and stored in the PatchMaster (HEKA) software. Recording electrodes were drawn from capillary glass tubes using a microelectrode puller. Under an inverted microscope, the recording electrode was brought into contact with the cell surface by manipulating a microelectrode manipulator. Negative-pressure suction was applied to form a GΩ seal. After formation of the […], a rapid capacitance compensation was given. The application of negative pressure was continued to rupture the cell membrane, forming a whole-cell recording mode. Then, a slow capacitance compensation was given, and the membrane capacitance and series resistance were recorded. No current leakage compensation was provided. Once the whole-cell recorded Kv1.X current stabilized, drug administration was started. Each drug concentration was allowed to act for 5 min (or until the current reached a steady state) before the next concentration was tested. Multiple concentrations were tested for each test compound. The cover glass plated with the cells was placed in a recording bath of the inverted microscope. The test compound and the compound-free extracellular fluid were allowed to sequentially flow through the recording bath from low concentrations to high concentrations using a gravity perfusion method, thus acting on the cells, and liquid exchange was performed using a vacuum pump during recording. For each cell, the current detected in the compound-free extracellular liquid was used as its own control group. The test was independently repeated three times using at least three cells per concentration. All electrophysiological experiments were performed at room temperature. […] First, the peak current after the action of each drug concentration and the peak current of the blank control were standardized and then the inhibition rate corresponding to each drug concentration was calculated Subsequently, the mean, standard deviation (SD), and standard error (SE) were calculated for the inhibition rate corresponding to each concentration. Using the above equation, the IC50 value for each compound was calculated, and the dose-dependent effect was subjected to non-linear fitting, where IC50 is the half maximal inhibitory concentration. The IC50 calculation and the curve fitting were performed using the GraphPad Prism software.

Chain of Kv1.3 potassium channel (P22001 whole entry): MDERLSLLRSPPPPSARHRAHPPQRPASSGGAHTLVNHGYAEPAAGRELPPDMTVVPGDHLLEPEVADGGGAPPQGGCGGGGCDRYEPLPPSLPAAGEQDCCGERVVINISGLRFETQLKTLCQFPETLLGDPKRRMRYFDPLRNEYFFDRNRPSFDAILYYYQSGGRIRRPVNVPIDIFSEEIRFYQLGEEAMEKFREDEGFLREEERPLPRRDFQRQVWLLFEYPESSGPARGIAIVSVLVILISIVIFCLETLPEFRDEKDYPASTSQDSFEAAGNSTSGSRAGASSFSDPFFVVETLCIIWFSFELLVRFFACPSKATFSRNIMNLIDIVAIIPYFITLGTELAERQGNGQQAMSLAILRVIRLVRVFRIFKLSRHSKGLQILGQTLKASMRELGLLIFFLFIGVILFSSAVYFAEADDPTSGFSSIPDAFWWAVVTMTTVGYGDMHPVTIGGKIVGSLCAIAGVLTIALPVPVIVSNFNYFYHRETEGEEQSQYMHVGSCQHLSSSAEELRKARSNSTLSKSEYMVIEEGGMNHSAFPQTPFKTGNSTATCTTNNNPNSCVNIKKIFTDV

SMILES	pIC50
CC(C)N1CCC(N2CC[C@@H](c3nnc4n3C[C@H](c3c(O)ccc(Cl)c3Cl)C4)C2)CC1 [Example 82, 3,4-Dichloro-2-((S)-3-((R)-1-(1-isopropylpiperidin-4-yl)pyrrolidin-3-yl)-6,7-dihydro-5H-pyrrolo[2,1-c][1,2,4]triazol-6-yl)phenol]	8.30
O=C1CC(c2nnc3n2C[C@H](c2c(O)ccc(Cl)c2Cl)C3)CCN1 (single isomer, unassigned) [Example 56]	7.69
O=C1C[C@@H](c2nnc3n2C[C@H](c2c(O)ccc(Cl)c2Cl)C3)CN1 [Example 52, (R)-4-((S)-6-(2.3-Dichloro-6-hydroxyphenyl)-6,7-dihydro-5H-pyrrolo[2,1-c][1,2,4]triazol-3-yl)pyrrolidin-2-one]	7.85
Oc1ccc(Cl)c(Cl)c1[C@@H]1Cc2nnc([C@@H]3CCN(C4CCOCC4)C3)n2C1 [Example 83, 3,4-Dichloro-2-((S)-3-((R)-1-(tetrahydro-2H-pyran-4-yl)pyrrolidin-3-yl)-6,7-dihydro-5H-pyrrolo[2,1-c][1,2,4]triazol-6-yl)phenol]	8.40
O=C(C1CC1)N1CCC(c2nnc3n2CC(c2c(O)ccc(Cl)c2Cl)C3)CC1 (stereo not shown) [Example 10, Cyclopropyl(4-(6-(2,3-dichloro-6-hydroxyphenyl)-6,7-dihydro-5H-pyrrolo[2,1-c][1,2,4]triazol-3-yl)piperidin-1-yl)methanone]	7.56
Cc1cc(-c2nnc3n2C[C@H](c2c(O)ccc(Cl)c2Cl)C3)ccn1 [Example 84, (S)-3,4-Dichloro-2-(3-(2-methylpyridin-4-yl)-6,7-dihydro-5H-pyrrolo[2,1-c][1,2,4]triazol-6-yl)phenol]	8.09
Oc1ccc(Cl)c(Cl)c1[C@@H]1Cc2nnc(-c3cn[nH]c3)n2C1 [Example 46, (S)-2-(3-(1H-Pyrazol-4-yl)-6,7-dihydro-5H-pyrrolo[2,1-c][1,2,4]triazol-6-yl)-3,4-dichlorophenol]	8.29
CC(C)N1CCN(c2cnc3n2CC(c2c(O)ccc(Cl)c2Cl)C3)CC1 (stereo not shown) [Example 100, 3,4-Dichloro-2-(3-(4-isopropylpiperazin-1-yl)-6,7-dihydro-5H-pyrrolo[1,2-a]imidazol-6-yl)phenol]	8.00
OCCc1nnc2n1C[C@H](c1c(O)ccc(Cl)c1Cl)C2 [Example 32, (S)-3,4-Dichloro-2-(3-(2-hydroxyethyl)-6,7-dihydro-5H-pyrrolo[2,1-c][1,2,4]triazol-6-yl)phenol]	7.89
COC(=O)N1CC[C@@H](c2nnc3n2C[C@H](c2c(O)ccc(Cl)c2Cl)C3)C1 [Example 51, methyl (R)-3-((S)-6-(2,3-dichloro-6-hydroxyphenyl)-6,7-dihydro-5H-pyrrolo[2,1-c][1,2,4]triazol-3-yl)pyrrolidine-1-carboxylate]	8.14
CCn1nc2n(c1=O)C[C@H](c1c(O)ccc(Cl)c1Cl)C2 [Example 106, (S)-6-(2,3-Dichloro-6-hydroxyphenyl)-2-ethyl-2,5,6,7-tetrahydro-3H-pyrrolo[2,1-c][1,2,4]triazol-3-one]	7.53
Oc1ccc(Cl)c(Cl)c1C1Cc2nnc(C3CCN(C4CCCCC4)CC3)n2C1 (single isomer, unassigned) [Example 79]	7.83
Cn1cc(-c2nnc3n2C[C@H](c2c(O)ccc(Cl)c2Cl)C3)cn1 [Example 40, (S)-3,4-Dichloro-2-(3-(1-methyl-1H-pyrazol-4-yl)-6,7-dihydro-5H-pyrrolo[2,1-c][1,2,4]triazol-6-yl)phenol]	7.97
Oc1ccc(Cl)c(Cl)c1[C@@H]1Cc2nnc([C@H]3C[C@H]4CC[C@@H]3O4)n2C1 [Example 60, 2-((S)-3-((1S,2R,4R)-7-Oxabicyclo[2.2.1]heptan-2-yl)-6,7-dihydro-5H-pyrrolo[2,1-c][1,2,4]triazol-6-yl)-3,4-dichlorophenol]	7.56
CCn1cc2c(n1)CC(c1c(O)ccc(Cl)c1Cl)C2 (stereo not shown) [Example 112, 3,4-Dichloro-2-(2-ethyl-2,4,5,6-tetrahydrocyclopenta[c]pyrazol-5-yl)phenol]	7.37
CC(F)(F)c1nnc2n1C[C@H](c1c(O)ccc(Cl)c1Cl)C2 [Example 85, (S)-3,4-Dichloro-2-(3-(1,1-difluoroethyl)-6,7-dihydro-5H-pyrrolo[2,1-c][1,2,4]triazol-6-yl)phenol]	7.61
CC(C)N1CCC(c2cnc3n2C[C@@H](c2c(O)ccc(Cl)c2Cl)C3)CC1 [Example 95, (R)-3,4-dichloro-2-(3-(1-isopropylpiperidin-4-yl)-6,7-dihydro-5H-pyrrolo[1,2-a]imidazol-6-yl)phenol]	8.22

SMILES	pIC50
Oc1ccc(Cl)c(Cl)c1C1Cc2nnc(C3CCN(C4CC4)CC3)n2C1 (stereo not shown) [Example 11, 3,4-Dichloro-2-(3-(1-cyclopropylpiperidin-4-yl)-6,7-dihydro-5H-pyrrolo[2,1-c][1,2,4]triazol-6-yl)phenol]	8.03
Oc1ccc(Cl)c(Cl)c1[C@@H]1Cc2nnc(C34COC(C3)C4)n2C1 [Example 66, (S)-2-(3-(2-Oxabicyclo[2.1.1]hexan-4-yl)-6,7-dihydro-5H-pyrrolo[2,1-c][1,2,4]triazol-6-yl)-3,4-dichlorophenol]	7.48
O=c1n(C2CCNCC2)nc2n1CC(c1c(O)ccc(Cl)c1Cl)C2 (stereo not shown) [Example 105, 6-(2,3-Dichloro-6-hydroxyphenyl)-2-(piperidin-4-yl)-2,5,6,7-tetrahydro-3H-pyrrolo[2,1-c][1,2,4]triazol-3-one]	8.23
Oc1ccc(Cl)c(Cl)c1C1Cc2nnc(C3CCCCC3)n2C1 (stereo not shown) [Example 5, 3,4-Dichloro-2-(3-cyclohexyl-6,7-dihydro-5H-pyrrolo[2,1-c][1,2,4]triazol-6-yl)phenol]	7.41
O=C1CC(c2nnc3n2C[C@H](c2c(O)ccc(Cl)c2Cl)C3)CCN1 (single isomer, unassigned) [Example 57]	7.94
O=C(c1nnc2n1CC(c1c(O)ccc(Cl)c1Cl)C2)N1CCOCC1 (stereo not shown) [Example 21, (6-(2,3-Dichloro-6-hydroxyphenyl)-6,7-dihydro-5H-pyrrolo[2,1-c][1,2,4]triazol-3-yl)(morpholino)methanone]	7.31
Oc1ccc(Cl)c(Cl)c1C1Cc2nnc(N3CCOCC3)n2C1 (stereo not shown) [Example 101, 3,4-Dichloro-2-(3-morpholino-6,7-dihydro-5H-pyrrolo[2,1-c][1,2,4]triazol-6-yl)phenol]	8.01
Oc1ccc(Cl)c(Cl)c1[C@@H]1Cc2nnc(C3CCOCC3)n2C1 [Example 33, (S)-3,4-Dichloro-2-(3-(tetrahydro-2H-pyran-4-yl)-6,7-dihydro-5H-pyrrolo[2,1-c][1,2,4]triazol-6-yl)phenol]	7.32
CC1(c2nnc3n2C[C@H](c2c(O)ccc(Cl)c2Cl)C3)CCOC1 (single isomer, unassigned) [Example 64]	7.37
Oc1ccc(Br)c(Cl)c1C1Cc2nnc([C@@H]3CCOC3)n2C1 (stereo partly drawn) [Example 120, (S)-4-Bromo-3-chloro-2-(3-(tetrahydrofuran-3-yl)-6,7-dihydro-5H-pyrrolo[2,1-c][1,2,4]triazol-6-yl)phenol]	7.69
Oc1ccc(Cl)c(Cl)c1[C@@H]1Cc2nnc([C@@H]3CCNC3)n2C1 [Example 48, 3,4-dichloro-2-((S)-3-((R)-pyrrolidin-3-yl)-6,7-dihydro-5H-pyrrolo[2,1-c][1,2,4]triazol-6-yl)phenol]	8.07
Oc1ccc(Cl)c(Cl)c1[C@@H]1Cc2nnc(C3CCCOC3)n2C1 (single isomer, unassigned) [Example 69]	7.28
Oc1ccc(Cl)c(Cl)c1[C@@H]1Cc2nnc(CC(F)(F)F)n2C1 [Example 87, (S)-3,4-Dichloro-2-(3-(2,2,2-trifluoroethyl)-6,7-dihydro-5H-pyrrolo[2,1-c][1,2,4]triazol-6-yl)phenol]	7.68
Oc1ccc(Cl)c(Cl)c1[C@@H]1Cc2nnc([C@]34COCC3C4)n2C1 (stereo partly drawn) [Example 73, 2-((6S)-3-((1R)-3-oxabicyclo[3.1.0]hexan-1-yl)-6,7-dihydro-5H-pyrrolo[2,1-c][1,2,4]triazol-6-yl)-3,4-dichlorophenol]	7.61
Nc1cc(-c2nnc3n2C[C@H](c2c(O)ccc(Cl)c2Cl)C3)ccn1 [Example 43, (S)-2-(3-(2-Aminopyridin-4-yl)-6,7-dihydro-5H-pyrrolo[2,1-c][1,2,4]triazol-6-yl)-3,4-dichlorophenol]	7.71
CCn1ncc2c1C[C@@H](c1c(O)ccc(Cl)c1Cl)C2 [Example 117, (S)-3,4-dichloro-2-(1-ethyl-1,4,5,6-tetrahydrocyclopenta[c]pyrazol-5-yl)phenol]	7.19
Oc1ccc(Cl)c(Cl)c1[C@@H]1Cc2nnc([C@@H]3CCCOC3)n2C1 [Example 68, 3,4-Dichloro-2-((S)-3-((S)-tetrahydro-2H-pyran-3-yl)-6,7-dihydro-5H-pyrrolo[2,1-c][1,2,4]triazol-6-yl)phenol]	7.80
